How the values were obtained:
[1] = tested on: U-2 OS, HCT116, MDA-MB231, SH-SY5Y and RPE-1 cell lines; experiment: Cell viability primary screen at 25 μM; assay type: cell-based, human; settings: 48 h; for Effect on cell viability, primary screen: all tested cell lines
Procedure: (§1) HCT116 cells were cultured in McCoy’s medium. SH-SY5Y, MDA-MB231 and U-2 OS cells were cultured in Dulbecco's modified Eagle's medium (DMEM) and hTERT RPE-1 cells in DMEM:F12 medium. All media were supplemented with 10% foetal calf serum and cells were cultured at 37 °C in a 5% CO2 humidified atmosphere.
(§2) Cell viability was then assessed using the CellTiter96 AQueous cell proliferation assay from Promega according to the manufacturer’s instructions. Each experiment was done in triplicate and EC50 were determined from the dose-response curves according to the signal given by the control (0.1% DMSO) set at 100% viability using Prism GraphPad software.

RnDYRK1A = RnDYRK1A (Rattus norvegicus, UniProt Q63470); experiment: ADP-Glo kinase assay; assay type: biochemical, Rattus norvegicus (Rn); settings: for Selectivity index DYRK/Haspin: IC50 DYRK1A/IC50 Haspin; for IC50: dose-response curve, each point in duplicate, read-out: Kinase inhibition (IC50) DYRK1A; for remaining activity: mean n = 2, % of maximum activity of DMSO control, read-out: % Residual activity at 1 μM DYRK1A
Procedure: (§3) Kinase activities were determined using the ADP-Glo methodology (ADP-Glo Kinase Assay; Promega) according to the assay described by Nguyen et al.[32] except for MmCLK1. The later was assayed in the following buffer: 10 mM MgCl2, 1 mM EGTA, 1 mM DTT, 25 mM Tris-HCl pH 7.5, 50 µg/ml heparin, 0.15 mg/ml BSA, with 0.027 µg/µl of the following peptide: GRSRSRSRSRSR as substrate.

HsCdk9/Cyc E = HsCdk9/Cyc E (Homo sapiens, UniProt P50750); experiment: ADP-Glo kinase assay; assay type: biochemical, Homo sapiens (Hs); settings: mean n = 2, % of maximum activity of DMSO control, read-out: % Residual activity at 1 μM CDK9
Procedure: as §3

HsCdk2/Cyc A = HsCdk2/Cyc A (Homo sapiens, UniProt P24941); experiment: ADP-Glo kinase assay; assay type: biochemical, Homo sapiens (Hs); settings: mean n = 2, % of maximum activity of DMSO control, read-out: % Residual activity at 1 μM CDK2
Procedure: as §3

HsGSK3β = HsGSK3β (Homo sapiens, UniProt P49841); experiment: ADP-Glo kinase assay; assay type: biochemical, Homo sapiens (Hs); settings: mean n = 2, % of maximum activity of DMSO control, read-out: % Residual activity at 1 μM GSK3β
Procedure: as §3

HsHaspin = biological target: T1, HsHaspin (Homo sapiens, UniProt Q8TF76); experiment: ADP-Glo kinase assay; assay type: biochemical, Homo sapiens (Hs); settings: for remaining activity at 1 µM: mean n = 2, % of maximum activity of DMSO control, read-out: % Residual activity at 1 μM Haspin; for IC50: dose-response curve, each point in duplicate, read-out: Kinase inhibition (IC50) Haspin
T1 sequence (Q8TF76 1-798): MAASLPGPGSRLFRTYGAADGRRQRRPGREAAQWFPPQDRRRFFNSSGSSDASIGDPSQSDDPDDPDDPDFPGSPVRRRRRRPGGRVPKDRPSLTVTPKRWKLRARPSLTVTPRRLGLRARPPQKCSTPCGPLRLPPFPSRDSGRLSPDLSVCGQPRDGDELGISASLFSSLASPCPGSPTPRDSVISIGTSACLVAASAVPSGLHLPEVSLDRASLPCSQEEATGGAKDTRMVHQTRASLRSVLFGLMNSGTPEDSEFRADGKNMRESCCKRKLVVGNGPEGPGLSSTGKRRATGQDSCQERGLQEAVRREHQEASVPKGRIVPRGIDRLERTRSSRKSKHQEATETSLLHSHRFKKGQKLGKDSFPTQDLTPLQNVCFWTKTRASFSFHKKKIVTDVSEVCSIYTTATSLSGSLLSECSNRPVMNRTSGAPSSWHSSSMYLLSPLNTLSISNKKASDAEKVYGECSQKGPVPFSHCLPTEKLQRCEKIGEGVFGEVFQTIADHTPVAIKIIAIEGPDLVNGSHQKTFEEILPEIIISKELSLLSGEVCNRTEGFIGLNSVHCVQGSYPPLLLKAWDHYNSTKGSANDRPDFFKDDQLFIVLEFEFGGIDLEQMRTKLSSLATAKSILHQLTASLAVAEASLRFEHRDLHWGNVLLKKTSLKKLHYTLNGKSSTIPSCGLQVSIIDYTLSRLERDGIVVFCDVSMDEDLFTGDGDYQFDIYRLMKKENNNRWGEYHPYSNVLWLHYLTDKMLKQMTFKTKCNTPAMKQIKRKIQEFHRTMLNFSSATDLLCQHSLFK
Procedure: as §3

HsPIM1 = HsPIM1 (Homo sapiens, UniProt P11309); experiment: ADP-Glo kinase assay; assay type: biochemical, Homo sapiens (Hs); settings: mean n = 2, % of maximum activity of DMSO control, read-out: % Residual activity at 1 μM PIM1
Procedure: as §3

HsCdk5/p25 = HsCdk5/p25 (Homo sapiens, UniProt Q00535); experiment: ADP-Glo kinase assay; assay type: biochemical, Homo sapiens (Hs); settings: mean n = 2, % of maximum activity of DMSO control, read-out: % Residual activity at 1 μM CDK5
Procedure: as §3

MmCLK1 = MmCLK1 (Mus musculus, UniProt P22518); experiment: ADP-Glo kinase assay; assay type: biochemical, Mus musculus (Mm); settings: for remaining activity at 1 µM: mean n = 2, % of maximum activity of DMSO control, read-out: % Residual activity at 1 μM CLK1; for Selectivity index CLK1/Haspin: IC50 CLK1/IC50 Haspin; for IC50: dose-response curve, each point in duplicate, read-out: Kinase inhibition (IC50) CLK1
Procedure: as §3

U-2 OS cell line = experiment: Cell viability MTS assay, dose-response; assay type: cell-based; settings: Homo sapiens, U2OS; 48 h, MTS assay in triplicate, doses up to 50 µM
Procedure: as §1, §2

RPE1 cell line = experiment: Cell viability MTS assay, dose-response; assay type: cell-based; settings: Homo sapiens, RPE-1; 48 h, MTS assay in triplicate, doses up to 50 µM
Procedure: as §1, §2

HsCdk5/p25, sequence (Q00535 whole entry): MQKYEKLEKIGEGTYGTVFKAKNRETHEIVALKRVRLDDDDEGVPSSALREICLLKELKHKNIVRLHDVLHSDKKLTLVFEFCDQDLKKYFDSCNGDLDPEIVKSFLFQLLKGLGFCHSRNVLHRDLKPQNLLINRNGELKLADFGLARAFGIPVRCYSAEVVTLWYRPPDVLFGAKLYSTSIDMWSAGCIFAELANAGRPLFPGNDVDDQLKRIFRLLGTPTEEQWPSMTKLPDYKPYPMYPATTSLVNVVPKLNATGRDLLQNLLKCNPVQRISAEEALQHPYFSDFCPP
HsCdk5/p25, sequence (Q15078 99-307 partner limits assumed): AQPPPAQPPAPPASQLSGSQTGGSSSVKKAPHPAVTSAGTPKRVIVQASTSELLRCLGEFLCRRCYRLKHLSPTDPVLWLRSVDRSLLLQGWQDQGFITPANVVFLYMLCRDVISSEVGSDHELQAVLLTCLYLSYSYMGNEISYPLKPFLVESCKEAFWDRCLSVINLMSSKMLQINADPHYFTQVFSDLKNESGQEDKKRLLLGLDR
HsCdk9/Cyc E, sequence (P50750 whole entry): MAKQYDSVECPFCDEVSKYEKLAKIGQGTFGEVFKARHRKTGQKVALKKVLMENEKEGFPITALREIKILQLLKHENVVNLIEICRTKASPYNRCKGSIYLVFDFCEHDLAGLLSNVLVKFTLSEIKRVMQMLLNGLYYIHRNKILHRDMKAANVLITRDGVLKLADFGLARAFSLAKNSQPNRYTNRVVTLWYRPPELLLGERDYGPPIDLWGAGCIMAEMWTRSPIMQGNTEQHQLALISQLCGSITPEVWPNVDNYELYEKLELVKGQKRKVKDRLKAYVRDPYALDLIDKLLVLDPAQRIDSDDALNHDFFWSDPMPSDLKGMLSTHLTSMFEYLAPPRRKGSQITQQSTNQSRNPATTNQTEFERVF
HsCdk9/Cyc E, sequence (O60563 whole entry partner): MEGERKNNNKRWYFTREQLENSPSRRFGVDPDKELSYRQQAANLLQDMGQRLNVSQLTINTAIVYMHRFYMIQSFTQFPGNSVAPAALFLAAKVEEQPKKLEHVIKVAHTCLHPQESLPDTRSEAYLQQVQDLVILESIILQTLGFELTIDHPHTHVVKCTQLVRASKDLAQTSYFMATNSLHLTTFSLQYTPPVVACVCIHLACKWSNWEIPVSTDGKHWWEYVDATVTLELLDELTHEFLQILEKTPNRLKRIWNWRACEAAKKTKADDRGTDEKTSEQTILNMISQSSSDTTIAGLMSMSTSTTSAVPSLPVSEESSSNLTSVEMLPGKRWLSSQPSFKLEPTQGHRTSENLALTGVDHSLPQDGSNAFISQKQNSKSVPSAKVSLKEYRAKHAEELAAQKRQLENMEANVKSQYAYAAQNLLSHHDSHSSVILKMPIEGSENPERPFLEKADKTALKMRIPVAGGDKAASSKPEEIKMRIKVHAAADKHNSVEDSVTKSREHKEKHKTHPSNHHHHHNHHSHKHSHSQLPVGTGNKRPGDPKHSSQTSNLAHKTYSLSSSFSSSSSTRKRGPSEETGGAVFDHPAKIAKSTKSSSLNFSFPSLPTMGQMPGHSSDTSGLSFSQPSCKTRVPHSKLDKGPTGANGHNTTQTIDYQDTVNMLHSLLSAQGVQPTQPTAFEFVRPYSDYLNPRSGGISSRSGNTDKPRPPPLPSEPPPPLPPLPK
MmCLK1, sequence (P22518 whole entry): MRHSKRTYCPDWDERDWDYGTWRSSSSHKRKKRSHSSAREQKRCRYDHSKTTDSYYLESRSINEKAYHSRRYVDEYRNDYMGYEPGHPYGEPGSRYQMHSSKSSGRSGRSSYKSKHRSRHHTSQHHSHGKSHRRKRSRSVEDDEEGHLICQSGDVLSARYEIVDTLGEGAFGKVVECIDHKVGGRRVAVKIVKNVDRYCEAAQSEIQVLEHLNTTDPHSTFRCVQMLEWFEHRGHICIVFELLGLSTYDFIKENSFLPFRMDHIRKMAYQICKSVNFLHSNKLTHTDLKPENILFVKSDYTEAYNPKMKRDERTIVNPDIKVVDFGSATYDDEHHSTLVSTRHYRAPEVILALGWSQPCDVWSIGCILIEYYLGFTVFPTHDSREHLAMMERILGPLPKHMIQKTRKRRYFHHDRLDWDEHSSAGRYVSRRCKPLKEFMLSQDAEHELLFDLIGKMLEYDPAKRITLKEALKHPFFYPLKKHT
HsPIM1, sequence (P11309 whole entry): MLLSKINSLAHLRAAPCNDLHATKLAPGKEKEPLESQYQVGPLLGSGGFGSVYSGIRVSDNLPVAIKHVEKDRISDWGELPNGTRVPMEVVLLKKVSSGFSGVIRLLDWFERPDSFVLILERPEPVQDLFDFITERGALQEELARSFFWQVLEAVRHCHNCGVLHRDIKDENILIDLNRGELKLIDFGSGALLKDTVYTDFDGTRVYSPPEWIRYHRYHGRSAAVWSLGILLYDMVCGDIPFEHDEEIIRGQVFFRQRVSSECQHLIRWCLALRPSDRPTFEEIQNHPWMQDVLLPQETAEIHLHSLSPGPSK
HsGSK3β, sequence (P49841 whole entry): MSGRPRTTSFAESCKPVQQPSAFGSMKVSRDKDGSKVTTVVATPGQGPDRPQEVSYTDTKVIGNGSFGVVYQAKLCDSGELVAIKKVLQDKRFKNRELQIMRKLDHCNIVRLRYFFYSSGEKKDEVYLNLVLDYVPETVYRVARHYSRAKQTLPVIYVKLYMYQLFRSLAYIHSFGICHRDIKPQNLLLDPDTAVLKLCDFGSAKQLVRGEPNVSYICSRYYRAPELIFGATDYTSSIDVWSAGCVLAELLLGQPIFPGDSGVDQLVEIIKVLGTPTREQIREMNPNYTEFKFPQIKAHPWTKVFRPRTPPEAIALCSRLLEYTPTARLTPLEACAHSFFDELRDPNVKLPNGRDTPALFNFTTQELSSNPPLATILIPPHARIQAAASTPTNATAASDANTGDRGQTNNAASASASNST

SMILES | melting point | Selectivity index DYRK/Haspin (RnDYRK1A) | IC50 (RnDYRK1A) | remaining activity (RnDYRK1A) | remaining activity at 1 µM (HsCdk9/Cyc E) | remaining activity at 1 µM (HsCdk2/Cyc A) | remaining activity at 1 µM (HsGSK3β) | remaining activity at 1 µM (HsHaspin) | IC50 (HsHaspin) | remaining activity at 1 µM (HsPIM1) | remaining activity at 1 µM (HsCdk5/p25) | remaining activity at 1 µM (MmCLK1) | Selectivity index CLK1/Haspin (MmCLK1) | IC50 (MmCLK1) | Effect on cell viability, primary screen [1] | EC50 (U-2 OS cell line) | EC50 (RPE1 cell line) | Reduction of cell viability compared to the DMSO control [1]
COc1ccc2[nH]c(=O)c3[nH]c4ccccc4c3c2c1 [Compound 46, 2-Methoxy-5,7-dihydro-6H-indolo[2,3-c]quinolin-6-one] | > 250 °C | 10 | 0.068 µM | 18% | 62% | 80% | 86% | 6% | 0.007 µM | 32% | 78% | 13% | 7 | 0.051 µM | little to no effect | > 25 µM | > 25 µM | –
O=c1[nH]c2ccc(O)cc2c2c1[nH]c1ccccc12 [Compound 48, 2-Hydroxy-5,7-dihydro-6H-indolo[2,3-c]quinolin-6-one] | 235 to 238 °C | 3 | 0.019 µM | 12% | 49% | 84% | 100% | 1% | 0.006 µM | 63% | 87% | 4% | 3 | 0.017 µM | – | 7 µM | 7.3 µM | ≥ 75%
COc1ccc2[nH]c3c(=O)[nH]c4ccccc4c3c2c1 [Compound 49, 10-Methoxy-5,7-dihydro-6H-indolo[2,3-c]quinolin-6-one] | 232 to 235 °C | – | 0.015 µM | 7% | 40% | 73% | 39% | 2% | 0.001 µM | 41% | 77% | 5% | – | 0.013 µM | little to no effect | > 25 µM | > 25 µM | –
COc1ccc2c(c1)[nH]c(=O)c1[nH]c3ccc(OC)cc3c12 [Compound 50, 3,10-Dimethoxy-5,7-dihydro-6H-indolo[2,3-c]quinolin-6-one] | 192 to 195 °C | 28 | 0.196 µM | 5% | 51% | 77% | 44% | 3% | 0.007 µM | 19% | 81% | 10% | 13 | 0.088 µM | – | 4.3 µM | 20.8 µM | ≥ 75%

The next lines start with results.

melting point | Selectivity index DYRK/Haspin (RnDYRK1A) | IC50 (RnDYRK1A) | remaining activity (RnDYRK1A) | remaining activity at 1 µM (HsCdk9/Cyc E) | remaining activity at 1 µM (HsCdk2/Cyc A) | remaining activity at 1 µM (HsGSK3β) | remaining activity at 1 µM (HsHaspin) | IC50 (HsHaspin) | remaining activity at 1 µM (HsPIM1) | remaining activity at 1 µM (HsCdk5/p25) | remaining activity at 1 µM (MmCLK1) | Selectivity index CLK1/Haspin (MmCLK1) | IC50 (MmCLK1) | SMILES | Effect on cell viability, primary screen [1] | EC50 (U-2 OS cell line) | EC50 (RPE1 cell line) | Reduction of cell viability compared to the DMSO control [1]
190 to 192 °C | 10 | 0.041 µM | 14% | 33% | 62% | 29% | 1% | 0.004 µM | 36% | 70% | 5% | 3 | 0.01 µM | COc1ccc2[nH]c(=O)c3[nH]c4ccc(OC)cc4c3c2c1 [Compound 51, 2,10-Dimethoxy-5,7-dihydro-6H-indolo[2,3-c]quinolin-6-one] | little to no effect | 12.6 µM | > 25 µM | –
227 to 230 °C | 24 | 0.097 µM | 2% | 18% | 35% | 48% | 0% | 0.004 µM | 9% | 59% | 11% | 21 | 0.082 µM | COc1ccc2[nH]c3c(=O)[nH]c4cc(O)ccc4c3c2c1 [Compound 54, 3-Hydroxy-10-methoxy-5,7-dihydro-6H-indolo[2,3-c]quinolin-6-one] | little to no effect | > 25 µM | > 25 µM | –
> 250 °C | 16 | 0.226 µM | 7% | 37% | 72% | 39% | 2% | 0.014 µM | 65% | 79% | 3% | 15 | 0.213 µM | COc1ccc2[nH]c3c(=O)[nH]c4ccc(N)cc4c3c2c1 [Compound 56, 2-Amino-10-methoxy-5,7-dihydro-6H-indolo[2,3-c]quinolin-6-one] | little to no effect | > 25 µM | > 25 µM | –
240 to 243 °C | 21 | 0.104 µM | 9% | 41% | 57% | 71% | 0% | 0.005 µM | 38% | 91% | 2% | 16 | 0.078 µM | O=c1[nH]c2ccc(O)cc2c2c1[nH]c1ccc(F)cc12 [Compound 61, 10-Fluoro-2-Hydroxy-5,7-dihydro-6H-indolo [2,3-c]quinolin-6-one] | – | 8.7 µM | 19.1 µM | ≥ 75%

— PMC9186362, “Design and biological evaluation of substituted 5,7-dihydro-6H-indolo[2,3-c]quinolin-6-one as novel selective Haspin inhibitors” (Journal of Enzyme Inhibition and Medicinal Chemistry, 2022)
